Measurements from the supplement of paper PMC11208160.

Assay: recombinant barcode read abundance after kanamycin selection (control-corrected) (log10(CPM+1)); higher = more efficient recombination; sequences stand for … in AGTGCAGAGAAAATCGGCCAGTTTTCTCTGCCTGCAGTCCGCATGCCGT…AGATTTATGCAGCGGACTGCCTTTCTCCCAAAGTGATAAACCGGACAGTATCATGGACCGGTTTTCCCGGTAATCCGTATTTGCAAGGTTGGTTTCACT; site = the 11-nt target
Outline: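 Recombination efficiency draws on barcodes counted at recombinant junctions in a pooled E. coli screen of targets paired with IS621 bridge RNA target-binding loops. The counts were converted to counts per million, averaged and corrected against the chloramphenicol/ampicillin LB agar control, then reported as log10(CPM+1). Selection plates held chloramphenicol/ampicillin/kanamycin with 0.1 mM IPTG, with two replicates per condition.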
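Further: IS621 recombinase and bridge RNA in Escherichia coli cells.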

Row | Sequence | recombinant barcode read abundance (log10)
1 | GGGGCGACTTGGGTTCTAACCTGTTGCCT (site GGGGCGCCTAG) | 0.0568
2 | GGGGCGACTTGGGTTCTAACCTGTTGCCT (site GGGGCGGCTAG) | 0.13
3 | GGGGCGACTTGGGTTCTAACCTGTTGCCT (site GGGGCGTCTAG) | 0.0176
4 | GGGGCTTCTTGGGTTCTAACCTGTTGCAT (site GGGACTTCTAT) | 0.158
5 | GGGGCTTCTTGGGTTCTAACCTGTTGCAT (site GGGCCTTCTAT) | 0.0416
6 | GGGGCTTCTTGGGTTCTAACCTGTTGCAT (site GGGGCTTCTAT) | 2.07
7 | GGGGCTTCTTGGGTTCTAACCTGTTGCAT (site GGGTCTTCTAT) | 0.27
8 | GGGGTTCCTTGGGTTCTAACCTGTTGCCT (site GGGGTTCCTAA) | 0.223
9 | GGGGTTCCTTGGGTTCTAACCTGTTGCCT (site GGGGTTCCTAC) | 1.56
10 | GGGGTTCCTTGGGTTCTAACCTGTTGCCT (site GGGGTTCCTAG) | 2.3
11 | GGGGTTCCTTGGGTTCTAACCTGTTGCCT (site GGGGTTCCTAT) | 1.42
12 | GGGGTTCCTTGGGTTCTAACCTGTTGCGT (site GGGGTTCCTAA) | 0.321
13 | GGGGTTCCTTGGGTTCTAACCTGTTGCGT (site GGGGTTCCTAC) | 3.32
14 | GGGGTTCCTTGGGTTCTAACCTGTTGCGT (site GGGGTTCCTAG) | 1.35
15 | GGGGTTCCTTGGGTTCTAACCTGTTGCGT (site GGGGTTCCTAT) | 1.85
16 | GGGGTTCCTTGGGTTCTAACCTGTTGCTT (site GGGGTTCCTAA) | 1.52
17 | GGGGTTCCTTGGGTTCTAACCTGTTGCTT (site GGGGTTCCTAC) | 1.89
18 | GGGGTTCCTTGGGTTCTAACCTGTTGCTT (site GGGGTTCCTAG) | 1.36
19 | GGGGTTCCTTGGGTTCTAACCTGTTGCTT (site GGGGTTCCTAT) | 1.17
20 | GGGTAATCTTGGGTTCTAACCTGTTGCCT (site GGGTAAACTAG) | 0.27
21 | GGGTAATCTTGGGTTCTAACCTGTTGCCT (site GGGTAATCTAG) | 0.725
22 | GGGTCCACTTGGGTTCTAACCTGTTGCCT (site GGGTCCACTAA) | 0.481

Row | Sequence | recombinant barcode read abundance (log10)
23 | GGGTCCACTTGGGTTCTAACCTGTTGCCT (site GGGTCCACTAC) | 0.287
24 | GGGTCCACTTGGGTTCTAACCTGTTGCCT (site GGGTCCACTAG) | 2.5
25 | GGGTCCACTTGGGTTCTAACCTGTTGCCT (site GGGTCCACTAT) | 0.358
26 | GGGTCCACTTGGGTTCTAACCTGTTGCTT (site GGGTCCACTAA) | 1.51
27 | GGGTCCACTTGGGTTCTAACCTGTTGCTT (site GGGTCCACTAC) | 0.139
28 | GGGTCCACTTGGGTTCTAACCTGTTGCTT (site GGGTCCACTAG) | 1.11
29 | GGGTCCACTTGGGTTCTAACCTGTTGCTT (site GGGTCCACTAT) | 0.714
30 | GGGTTCCCTTGGGTTCTAACCTGTTGCCT (site GGGTTCCCTAG) | 2.11
31 | GGGTTCCCTTGGGTTCTAACCTGTTGCCT (site GGGTTCGCTAG) | 0.031
32 | GGGTTCGCTTGGGTTCTAACCTGTTGCCT (site GGGTTCCCTAG) | 0.362
33 | GGGTTCGCTTGGGTTCTAACCTGTTGCCT (site GGGTTCGCTAG) | 1.93
34 | GGTAAGTCTTGGGTTCTAACCTGTTGCCT (site GGTAAATCTAG) | 0.3
35 | GGTAAGTCTTGGGTTCTAACCTGTTGCCT (site GGTAAGTCTAG) | 0.298
36 | GGTACGACTTGGGTTCTAACCTGTTGCAG (site GGTACGACTCT) | 1.04
37 | GGTACGACTTGGGTTCTAACCTGTTGCAG (site GGTACGCCTAT) | 0.336
38 | GGTACGCCTTGGGTTCTAACCTGTTGCGT (site GGTACGCCTAC) | 0.248
39 | GGTACGCCTTGGGTTCTAACCTGTTGCGT (site GGTACTCCTAC) | 0.213
40 | GGTACTACTTGGGTTCTAACCTGTTGCCA (site ACTACTACTTG) | 0.0797
41 | GGTACTACTTGGGTTCTAACCTGTTGCCA (site GGTACTACTTG) | 0.152
42 | GGTACTTCTTGGGTTCTAACCTGTTGCTT (site CACCACCCTCC) | 0.157
43 | GGTACTTCTTGGGTTCTAACCTGTTGCTT (site GGTACTTCTAA) | 0.152
44 | GGTAGGCCTTGGGTTCTAACCTGTTGCTT (site GGTAGATCTAA) | 0.0963

Row | Sequence | recombinant barcode read abundance (log10)
45 | GGTAGGCCTTGGGTTCTAACCTGTTGCTT (site GGTAGGCCTAA) | 0.0588
46 | GGTATAGCTTGGGTTCTAACCTGTTGCCT (site GGTAAAGCTAG) | 0.14
47 | GGTATAGCTTGGGTTCTAACCTGTTGCCT (site GGTATAGCTAG) | 0.827
48 | GGTCACCCTTGGGTTCTAACCTGTTGCGG (site GGTAACCCTCC) | 0.0652
49 | GGTCACCCTTGGGTTCTAACCTGTTGCGG (site GGTCACCCTCC) | 1.75
50 | GGTCACCCTTGGGTTCTAACCTGTTGCGG (site GGTGACCCTCC) | 0.0199
51 | GGTCACCCTTGGGTTCTAACCTGTTGCGG (site GGTTACCCTCC) | 0.16
52 | GGTCATCCTTGGGTTCTAACCTGTTGCCT (site GGTCATACTAG) | 0.127
53 | GGTCATCCTTGGGTTCTAACCTGTTGCCT (site GGTCATCCTAG) | 1.17
54 | GGTCATCCTTGGGTTCTAACCTGTTGCCT (site GGTCATGCTAG) | 0.0238
55 | GGTCATCCTTGGGTTCTAACCTGTTGCCT (site GGTCATTCTAG) | 0.0693
56 | GGTCCAACTTGGGTTCTAACCTGTTGCCT (site GGTCAAACTAG) | 0.1
57 | GGTCCAACTTGGGTTCTAACCTGTTGCCT (site GGTCCAACTAG) | 0.32
58 | GGTCCAACTTGGGTTCTAACCTGTTGCCT (site GGTCGAACTAG) | 0.0176
59 | GGTCCAACTTGGGTTCTAACCTGTTGCCT (site GGTCTAACTAG) | 0.159
60 | GGTCCATCTTGGGTTCTAACCTGTTGCCT (site GATCCATCTAG) | 0
61 | GGTCCATCTTGGGTTCTAACCTGTTGCCT (site GCTCCATCTAG) | 0.0427
62 | GGTCCATCTTGGGTTCTAACCTGTTGCCT (site GGTCCATCTAG) | 0.161
63 | GGTCCATCTTGGGTTCTAACCTGTTGCCT (site GTTCCATCTAG) | 0.165
64 | GGTCCGGCTTGGGTTCTAACCTGTTGCGG (site GATCCGTCTCC) | 0.0623
65 | GGTCCGGCTTGGGTTCTAACCTGTTGCGG (site GGTCCGGCTCC) | 1.61
66 | GGTCCTGCTTGGGTTCTAACCTGTTGCCT (site AGTCCTGCTAG) | 0.366

Row | Sequence | recombinant barcode read abundance (log10)
67 | GGTCCTGCTTGGGTTCTAACCTGTTGCCT (site CGTCCTGCTAG) | 0.0632
68 | GGTCCTGCTTGGGTTCTAACCTGTTGCCT (site GGTCCTGCTAG) | 0.976
69 | GGTCCTGCTTGGGTTCTAACCTGTTGCCT (site TGTCCTGCTAG) | 0.174
70 | GGTCGACCTTGGGTTCTAACCTGTTGCCT (site AGTCGACCTAG) | 0.0754
71 | GGTCGACCTTGGGTTCTAACCTGTTGCCT (site CGTCGACCTAG) | 0.0694
72 | GGTCGACCTTGGGTTCTAACCTGTTGCCT (site GGTCGACCTAG) | 0.898
73 | GGTCGACCTTGGGTTCTAACCTGTTGCCT (site TGTCGACCTAG) | 0.175
74 | GGTCGCCCTTGGGTTCTAACCTGTTGCGT (site GGTCGCCCTAC) | 1.43
75 | GGTCGCCCTTGGGTTCTAACCTGTTGCGT (site TCGTAGACTTA) | 0.0116
76 | GGTCGGGCTTGGGTTCTAACCTGTTGCCT (site GGTCGAGCTAG) | 0.132
77 | GGTCGGGCTTGGGTTCTAACCTGTTGCCT (site GGTCGCGCTAG) | 0.315
78 | GGTCGGGCTTGGGTTCTAACCTGTTGCCT (site GGTCGGGCTAG) | 0.401
79 | GGTCGGGCTTGGGTTCTAACCTGTTGCCT (site GGTCGTGCTAG) | 0.0723
80 | GGTGGGTCTTGGGTTCTAACCTGTTGCGT (site GGTGGGTCTAA) | 0.97
81 | GGTGGGTCTTGGGTTCTAACCTGTTGCGT (site GGTGGGTCTAC) | 3.03
82 | GGTGGGTCTTGGGTTCTAACCTGTTGCGT (site GGTGGGTCTAG) | 1.1
83 | GGTGGGTCTTGGGTTCTAACCTGTTGCGT (site GGTGGGTCTAT) | 1.93
84 | GGTTACACTTGGGTTCTAACCTGTTGCCT (site GGATACACTAG) | 0.0395
85 | GGTTACACTTGGGTTCTAACCTGTTGCCT (site GGTTACACTAG) | 1.26
86 | GGTTGTTCTTGGGTTCTAACCTGTTGCCT (site GGTTGTTCTAG) | 0.19
